Activity calls are given as the source filed them.
Assays:
[1] = molecular target: Bifunctional protein GlmU (Mycobacterium tuberculosis, UniProt P9WMN3); test: Inhibitors of Mycobacterial Glucosamine-1-phosphate acetyl transferase (GlmU). Secondary screen.; design: species or system Mycobacterium tuberculosis H37Rv
Vero [2] = test: viability of Vero cells under compound – cytotoxicity control for flavivirus capping enzyme inhibitors (AID 588742); assay type: functional; details: Chlorocebus sabaeus
Vero [3] = test: cells; assay type: functional, cell-based; details: Chlorocebus sabaeus
Vero [4] = test: cells; assay type: functional; details: Chlorocebus sabaeus
Genome polyprotein = Genome polyprotein (dengue virus type 2, UniProt P29990); test: flavivirus cap methylation enzyme inhibition – biochemical, confirmation dose response, primary screen (AID 588689); assay type: functional
Major prion protein = Major prion protein (Homo sapiens, UniProt P04156); assay type: functional, cell-based
Beta-arrestin-1 = Beta-arrestin-1 (Homo sapiens, UniProt P49407); test: beta-arrestin/AP2 interaction blockers, potency – biochemical, cherry pick 1, beta2-adaptin appendage, flow cytometry, dose response (AID 588783); assay type: functional
[5] = molecular target: T1, Polyadenylate-binding protein 1 (Homo sapiens, UniProt P11940); test: MLLE binding blockers, Cy5 peptide tracer – biochemical, fluorescence polarization, Cy5-PAM2 peptide, secondary, miRNA deadenylation inhibitor project, dose response (AID 602260); assay type: functional; details: read-out: IC50_Mean
[6] = molecular target: T1, Polyadenylate-binding protein 1; test: MLLE domain peptide-binding blockers, IC50 – biochemical, fluorescence polarization, FITC-PAM2 peptide, dose response (AID 602259); assay type: functional; details: read-out: IC50_Mean
Protein skinhead-1 = molecular target: T2, Protein skinhead-1 (Caenorhabditis elegans, UniProt P34707); assay type: functional
T2 sequence (P34707 whole entry): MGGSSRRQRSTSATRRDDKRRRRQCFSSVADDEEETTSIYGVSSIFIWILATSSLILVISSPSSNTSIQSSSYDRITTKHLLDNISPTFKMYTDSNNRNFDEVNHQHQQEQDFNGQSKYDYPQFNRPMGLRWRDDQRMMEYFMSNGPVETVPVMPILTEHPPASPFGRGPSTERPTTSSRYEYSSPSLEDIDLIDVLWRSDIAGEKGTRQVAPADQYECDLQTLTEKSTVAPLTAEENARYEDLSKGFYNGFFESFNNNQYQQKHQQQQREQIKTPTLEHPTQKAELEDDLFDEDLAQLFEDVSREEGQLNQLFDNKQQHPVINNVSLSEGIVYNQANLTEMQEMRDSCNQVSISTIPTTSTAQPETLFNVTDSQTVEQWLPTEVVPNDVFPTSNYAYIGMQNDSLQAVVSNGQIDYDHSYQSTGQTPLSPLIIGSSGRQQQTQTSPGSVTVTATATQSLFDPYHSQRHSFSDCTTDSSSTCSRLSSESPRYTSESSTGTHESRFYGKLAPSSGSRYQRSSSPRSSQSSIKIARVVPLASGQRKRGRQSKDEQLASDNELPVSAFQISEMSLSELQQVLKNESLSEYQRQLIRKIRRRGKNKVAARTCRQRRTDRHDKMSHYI

[7] = viability loss in HeLa cells – cytotoxicity control for MgcRacGAP inhibitor project, dose response (AID 624300); assay type: functional
[8] = molecular target: T3, Rac GTPase-activating protein 1 (Homo sapiens, UniProt Q9H0H5); test: blockers of MgcRacGAP-driven Rac1 GTP hydrolysis – biochemical, ADP Hunter fluorescence, primary and confirmatory, confirmation (AID 624330); assay type: functional
T3 sequence (Q9H0H5 whole entry): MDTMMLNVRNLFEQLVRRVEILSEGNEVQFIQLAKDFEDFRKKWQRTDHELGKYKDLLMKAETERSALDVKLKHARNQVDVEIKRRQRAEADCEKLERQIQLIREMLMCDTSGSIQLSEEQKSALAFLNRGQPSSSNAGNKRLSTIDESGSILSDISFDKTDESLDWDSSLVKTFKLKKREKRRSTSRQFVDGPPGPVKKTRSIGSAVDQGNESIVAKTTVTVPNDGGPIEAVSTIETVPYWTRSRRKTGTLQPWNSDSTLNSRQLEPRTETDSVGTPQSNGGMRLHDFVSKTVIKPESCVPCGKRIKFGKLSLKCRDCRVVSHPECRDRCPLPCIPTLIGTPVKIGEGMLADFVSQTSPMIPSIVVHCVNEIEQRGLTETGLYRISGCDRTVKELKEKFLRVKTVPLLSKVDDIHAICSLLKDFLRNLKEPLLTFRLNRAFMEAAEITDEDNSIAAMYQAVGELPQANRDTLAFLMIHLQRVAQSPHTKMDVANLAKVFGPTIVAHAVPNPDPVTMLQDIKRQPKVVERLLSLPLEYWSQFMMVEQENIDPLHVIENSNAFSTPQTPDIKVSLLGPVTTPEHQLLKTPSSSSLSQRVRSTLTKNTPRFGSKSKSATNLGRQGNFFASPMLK

Paired box protein Pax-8 = Paired box protein Pax-8 (Homo sapiens, UniProt Q06710); test: PAX8 transcriptional activity inhibition in RMG-I – RMG-I cells, luciferase, cherry-pick, dose response (AID 687027); assay type: functional, cell-based;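 note: luciferase reporter driven by Pax8 target thyroperoxidase promoter measured by SteadyGlo luminescence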
Caspase-6 = molecular target: T4, Caspase-6 (Homo sapiens, UniProt P55212); test: inhibition of CASP6 peptide cleavage – biochemical, VEID-R110 fluorescence, cherry-pick, dose response (AID 720632)
T4 sequence (P55212 whole entry): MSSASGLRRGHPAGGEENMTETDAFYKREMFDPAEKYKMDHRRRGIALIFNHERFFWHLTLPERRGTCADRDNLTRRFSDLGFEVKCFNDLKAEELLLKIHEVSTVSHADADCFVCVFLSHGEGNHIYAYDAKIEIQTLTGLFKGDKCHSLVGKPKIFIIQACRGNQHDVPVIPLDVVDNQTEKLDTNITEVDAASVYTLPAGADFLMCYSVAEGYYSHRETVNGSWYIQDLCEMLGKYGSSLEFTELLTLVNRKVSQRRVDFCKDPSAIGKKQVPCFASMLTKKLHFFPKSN

[9] = molecular target: T5, Histone-lysine N-methyltransferase NSD2 (Homo sapiens, UniProt O96028); assay type: biochemical
T5 sequence (O96028 whole entry): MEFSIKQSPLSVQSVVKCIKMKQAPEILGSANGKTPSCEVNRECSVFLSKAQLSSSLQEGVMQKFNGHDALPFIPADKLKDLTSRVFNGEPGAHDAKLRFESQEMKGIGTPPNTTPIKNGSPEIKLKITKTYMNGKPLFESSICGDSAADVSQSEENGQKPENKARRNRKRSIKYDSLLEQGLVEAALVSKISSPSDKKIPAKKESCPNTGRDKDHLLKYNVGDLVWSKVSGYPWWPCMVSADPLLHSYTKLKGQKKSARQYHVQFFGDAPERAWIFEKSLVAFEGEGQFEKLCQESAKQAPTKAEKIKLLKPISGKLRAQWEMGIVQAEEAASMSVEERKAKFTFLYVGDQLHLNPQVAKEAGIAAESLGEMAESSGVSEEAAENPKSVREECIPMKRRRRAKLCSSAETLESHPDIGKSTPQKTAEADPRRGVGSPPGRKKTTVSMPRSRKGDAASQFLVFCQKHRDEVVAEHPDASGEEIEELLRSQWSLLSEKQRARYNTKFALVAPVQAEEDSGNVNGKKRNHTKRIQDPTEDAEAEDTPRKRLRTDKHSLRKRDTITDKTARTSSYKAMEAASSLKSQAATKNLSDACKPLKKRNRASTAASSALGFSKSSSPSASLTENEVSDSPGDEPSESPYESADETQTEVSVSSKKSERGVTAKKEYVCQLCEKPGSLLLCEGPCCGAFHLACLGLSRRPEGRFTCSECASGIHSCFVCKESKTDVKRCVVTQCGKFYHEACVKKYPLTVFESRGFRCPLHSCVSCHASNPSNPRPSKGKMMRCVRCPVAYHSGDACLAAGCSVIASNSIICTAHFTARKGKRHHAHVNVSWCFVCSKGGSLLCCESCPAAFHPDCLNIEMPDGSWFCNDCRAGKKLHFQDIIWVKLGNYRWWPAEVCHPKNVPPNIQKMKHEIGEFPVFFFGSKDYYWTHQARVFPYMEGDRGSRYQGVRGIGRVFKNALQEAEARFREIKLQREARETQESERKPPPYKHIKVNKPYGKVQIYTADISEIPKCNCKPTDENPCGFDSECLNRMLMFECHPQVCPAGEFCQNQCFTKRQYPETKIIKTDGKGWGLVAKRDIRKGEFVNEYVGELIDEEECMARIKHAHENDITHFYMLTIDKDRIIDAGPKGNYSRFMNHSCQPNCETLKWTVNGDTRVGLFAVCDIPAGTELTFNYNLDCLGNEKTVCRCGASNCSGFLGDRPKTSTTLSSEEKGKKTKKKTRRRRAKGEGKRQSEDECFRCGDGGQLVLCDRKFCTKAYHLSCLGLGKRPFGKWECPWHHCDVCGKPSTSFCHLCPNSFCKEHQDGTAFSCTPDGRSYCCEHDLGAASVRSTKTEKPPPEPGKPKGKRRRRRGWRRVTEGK

[10] = molecular target: T6, Short transient receptor potential channel 4 (Mus musculus, UniProt Q9QUQ5); test: SAR Analysis for the identification of selective inhibits of the transient receptor potential cation channel C4 (TRPC4): Automated Electrophysiology_2. [Related pubchem assays (depositor defined):AID2256]; assay type: functional
T6 sequence (Q9QUQ5 whole entry): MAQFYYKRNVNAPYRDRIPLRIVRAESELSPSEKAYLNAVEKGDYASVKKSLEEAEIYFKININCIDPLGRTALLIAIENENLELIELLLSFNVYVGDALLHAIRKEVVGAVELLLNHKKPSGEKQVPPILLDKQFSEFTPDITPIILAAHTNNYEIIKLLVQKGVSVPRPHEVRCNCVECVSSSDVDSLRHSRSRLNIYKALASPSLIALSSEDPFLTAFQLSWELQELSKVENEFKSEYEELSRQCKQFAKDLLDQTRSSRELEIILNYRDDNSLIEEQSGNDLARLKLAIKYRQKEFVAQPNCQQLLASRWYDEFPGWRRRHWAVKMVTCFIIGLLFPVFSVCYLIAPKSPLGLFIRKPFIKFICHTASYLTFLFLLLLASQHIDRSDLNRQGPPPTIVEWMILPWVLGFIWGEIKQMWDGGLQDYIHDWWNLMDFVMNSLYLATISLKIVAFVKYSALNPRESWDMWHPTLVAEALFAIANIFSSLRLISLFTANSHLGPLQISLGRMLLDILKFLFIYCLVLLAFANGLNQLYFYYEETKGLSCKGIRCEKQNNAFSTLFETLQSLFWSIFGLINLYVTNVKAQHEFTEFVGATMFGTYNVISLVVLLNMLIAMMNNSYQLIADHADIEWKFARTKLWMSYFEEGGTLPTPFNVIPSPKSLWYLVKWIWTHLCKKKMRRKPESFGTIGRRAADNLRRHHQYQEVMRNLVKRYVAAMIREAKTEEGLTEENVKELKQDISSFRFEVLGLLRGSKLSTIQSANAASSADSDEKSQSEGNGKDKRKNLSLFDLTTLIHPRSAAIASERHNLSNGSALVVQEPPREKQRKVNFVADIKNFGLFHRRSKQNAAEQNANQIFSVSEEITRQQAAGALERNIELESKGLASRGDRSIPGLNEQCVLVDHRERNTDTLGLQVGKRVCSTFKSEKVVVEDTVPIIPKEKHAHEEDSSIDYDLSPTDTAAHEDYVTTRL

[11] = molecular target: T6, Short transient receptor potential channel 4; test: mouse TRPC4 block via Gq-coupled stimulation – cell-based, acetylcholine stimulus, HEK293 TRPC4, Fluo-4, SAR follow-up (AID 492996); assay type: functional
[12] = molecular target: T6, Short transient receptor potential channel 4; test: SAR Analysis for the identification of selective inhibitors of the transient receptor potential cation channel C4 (TRPC4): TRPC4 Serotonin Receptor CRC MPD assay. [Related pubchem assays (depositor defined):AID2247, AID2256]; assay type: functional
[13] = molecular target: Short transient receptor potential channel 6 (Mus musculus, UniProt Q61143); test: mouse TRPC6 channel blockers, concentration series – HEK293 cells, membrane potential dye, IC50, selectivity assay for selective TRPC4 inhibitor project, dose response (AID 492987); assay type: functional, cell-based
[14] = molecular target: T6, Short transient receptor potential channel 4; test: potency of mouse TRPC4 calcium flux blockers – cell-based, HEK293 TRPC4/mu-opioid, DAMGO stimulus, Fluo-4, dose response (AID 492994); assay type: functional
[15] = molecular target: Voltage-gated inwardly rectifying potassium channel KCNH2 (Homo sapiens, UniProt Q12809); details: Potency;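 note: confirmatory quantitative high-throughput screen measuring inhibition of hERG channel activity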

O=c1oc2ccccc2c(O)c1[C@H]1c2ccc(O)cc2Oc2c1c(=O)oc1ccccc21
IC50 [1]: 117 µM (active)
CC50 (Vero [2]): > 40 µM (active)
IC50 (Vero [3]): > 25 µM (active)
CC50 (Vero [4]): > 25 µM (active)
IC50 (Genome polyprotein): 80.7 µM (active)
IC50 (Major prion protein): 9.01 µM (active)
IC50 (cells): 124 µM (inactive)

O=C1C(Br)=C(N2CCN(CCOCCO)CC2)C(=O)c2c(O)ccc(O)c21
CC50 (Vero [2]): 8.58 µM (active)
IC50 (Beta-arrestin-1): 7.46 µM (active)
IC50 (Genome polyprotein): 5.11 µM (active)
IC50 [5]: > 66 µM (inactive)
IC50 [6]: 38.7 µM (inactive)
IC50 (Protein skinhead-1): 79.6 µM (inactive)
CC50 [7]: 12.6 µM (active)
IC50 [8]: 34.8 µM (active)
AC50 (Paired box protein Pax-8): 7.03 µM (active)
AC50 (Caspase-6): 0.343 µM (active)
AC50 [9]: 7.21 µM (active)

Cc1cc(N2CCCC2)nc2ccc(F)cc12
IC50 [10]: 3.94 µM (active)
IC50 [11]: 17.4 µM (active)
IC50 [12]: 1.41 µM (active)
IC50 [13]: 7.76 µM (active)
IC50 [14]: 0.93 µM (active)

C=CCN1CC[C@]23c4c5ccc(O)c4O[C@@H]2/C(=N/N=C2\CC[C@@]4(O)C6Cc7ccc(O)c8c7[C@@]4(CCN6CC=C)[C@@H]2O8)CC[C@@]3(O)C1C5
AC50 [15]: 20 µM (inconclusive)

From ChEMBL document CHEMBL1201862, “PubChem BioAssay data set” (2004)
